Data taken from patent US8592460B2, “Amino-pyridine derivatives as S1P1 /EDG1 receptor agonists” (Actelion Pharmaceuticals Ltd., priority 2007, dated 2013).

Assays:
[1] = molecular target: recombinant human S1P1 receptor (Homo sapiens, UniProt P21453); assay: GTPγS assay to determine EC50 values; format: biochemical; settings: agonistic activity, 35S-GTPγS binding
Protocol: GTPγS binding assays are performed in 96 well microtiter plates (Nunc, 442587) in a final volume of 200 μl, using membrane preparations of CHO cells expressing recombinant human S1P1 receptor. Assay conditions are 20 mM Hepes (Fluka, 54461), 100 mM NaCl (Fluka, 71378), 5 mM MgCl2(Fluka, 63064), 0.1% BSA (Calbiochem, 126609), 1 μM GDP (Sigma, G-7127), 2.5% DMSO (Fluka, 41644), […] ^35S-GTPγS (Amersham Biosciences, SJ1320). The pH is 7.4. Test compounds are dissolved and diluted in 100% DMSO and pre-incubated at room temperature for 30 min in 150 μl of the above assay buffer, in the absence of ^35S-GTPγS. After addition of 50 μl of ^35S-GTPγS, the assay is incubated for 1 h at rt. The assay is terminated by transfer of the reaction mixture to a Multiscreen plate (Millipore, MAHFC1H60) using a cell harvester from Packard Biosciences, and the plates are washed with ice-cold 10 mM Na2HPO4/NaH2PO4 (70%/30%), dried, sealed at the bottom and, after addition of 25 μl MicroScint20 (Packard Biosciences, order#6013621), sealed on the top. Membrane-bound ^35S-GTPγS is measured with a TopCount from Packard Biosciences.
EC50 is the concentration of agonist inducing 50% of the maximal specific ^35S-GTPγS binding. Specific binding is determined by subtracting non-specific binding from maximal binding. Maximal binding is the amount of cpm bound to the Multiscreen plate in the presence of 10 μM of S1P. Non-specific binding is the amount of binding in the absence of an agonist in the assay.

circulating lymphocytes = assay: Assessment of in vivo efficacy: circulating lymphocytes after oral administration; design: species or system rat; settings: 6 h after oral administration of 10 mg/kg to normotensive male Wistar rats, compared to vehicle-treated group; mean ± SEM
Protocol: The efficacy of the compounds of formula (I) is assessed by measuring the circulating lymphocytes after oral administration of 3 to 30 mg/kg of a compound of formula (I) to normotensive male Wistar rats. The animals are housed in climate-controlled conditions with a 12 h-light/dark cycle, and have free access to normal rat chow and drinking water. Blood is collected before and 3, 6 and 24 h after drug administration. Full blood is subjected to hematology using Advia Hematology system (Bayer Diagnostics, Zurich, Switzerland).
All data are presented as mean±SEM. Statistical analyses are performed by analysis of variance (ANOVA) using Statistica (StatSoft) and the Student-Newman-Keuls procedure for multiple comparisons. The null hypothesis is rejected when p<0.05.
Lymphocyte counts 6 h after oral administration have been measured for 39 of the 258 exemplified compounds and are in the range of −82% to −48% with an average of −65%.

[2] = membranes of CHO cells expressing recombinant human S1P1 receptor
[3] = membrane preparations of CHO cells expressing recombinant human S1P1 receptor

Chain of recombinant human S1P1 receptor (P21453 whole entry): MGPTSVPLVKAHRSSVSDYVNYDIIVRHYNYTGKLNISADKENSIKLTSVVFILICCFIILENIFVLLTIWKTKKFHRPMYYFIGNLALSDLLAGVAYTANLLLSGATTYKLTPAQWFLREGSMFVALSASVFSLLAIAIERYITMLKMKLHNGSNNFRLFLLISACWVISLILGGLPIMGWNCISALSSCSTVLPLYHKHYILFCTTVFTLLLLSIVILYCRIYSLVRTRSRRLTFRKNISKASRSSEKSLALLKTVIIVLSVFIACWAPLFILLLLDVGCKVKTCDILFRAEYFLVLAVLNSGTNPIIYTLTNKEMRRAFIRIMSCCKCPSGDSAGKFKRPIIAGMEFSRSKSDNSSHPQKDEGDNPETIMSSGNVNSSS

## CCc1cc(-c2nnc(-c3cc(C)nc(N(C)C(C)C)c3)s2)cc(C)c1OC[C@H](O)CO [Example 176]
[1]; [2]
  EC50: > 10000 nM

## CCc1cc(-c2noc(-c3cc(C)nc(N4CCCC4)c3)n2)cc(C)c1OC[C@@H](O)CNC(=O)CO [Example 188, N—((S)-3-{2-ethyl-6-methyl-4-[5-(2-methyl-6-pyrrolidin-1-yl-pyridin-4-yl)-[1,2,4]oxadiazol-3-yl]-phenoxy}-2-hydroxy-propyl)-2-hydroxy-acetamide]
Circulating lymphocytes
  Lymphocyte counts: −76 ± 1%

## CCc1cc(-c2noc(-c3cc(C)nc(N(C)C(C)C)c3)n2)cc(C)c1CCC(=O)NCCC(=O)O [Example 26, 3-[3-(2-Ethyl-4-{5-[2-(isopropyl-methyl-amino)-6-methyl-pyridin-4-yl]-[1,2,4]oxadiazol-3-yl}-6-methyl-phenyl)-propionylamino]-propionic acid]
[1]; [3]
  EC50: 2.6 nM

## CCc1cc(-c2noc(-c3cc(C)nc(NC(C)C)c3)n2)cc(C)c1OC[C@@H](O)CO [Example 199, (S)-3-{2-ethyl-4-[5-(2-isopropylamino-6-methyl-pyridin-4-yl)-[1,2,4]oxadiazol-3-yl]-6-methyl-phenoxy}-propane-1,2-diol]
Circulating lymphocytes
  Lymphocyte counts: −72 ± 3%

## CCc1cc(-c2noc(-c3cc(C)nc(N(C)CC(C)C)c3)n2)cc(C)c1OCC(O)CO (racemic) [Example 34, rac-3-(2-Ethyl-4-{5-[2-(isobutyl-methyl-amino)-6-methyl-pyridin-4-yl]-[1,2,4]oxadiazol-3-yl}-6-methyl-phenoxy)-propane-1,2-diol]
[1]; [2]
  EC50: > 10000 nM

## COc1cc(OC[C@H](O)CNC(=O)CO)ccc1-c1noc(-c2cc(C)nc(N(C)C(C)C)c2)n1 [Example 159, 2-hydroxy-N—[(R)-2-hydroxy-3-(4-{5-[2-(isopropyl-methyl-amino)-6-methyl-pyridin-4-yl]-[1,2,4]oxadiazol-3-yl}-3-methoxy-phenoxy)-propyl]-acetamide]
[1]; [3]
  EC50: 5.1 nM

## CCc1cc(-c2nnc(-c3cc(C)nc(N(CC)CC)c3)o2)cc(C)c1OC[C@@H](O)CNC(=O)CO [Example 87, N—((S)-3-{4-[5-(2-diethylamino-6-methyl-pyridin-4-yl)-[1,3,4]oxadiazol-2-yl]-2-ethyl-6-methyl-phenoxy}-2-hydroxy-propyl)-2-hydroxy-acetamide]
[1]; [3]
  EC50: 3.4 nM

## CCc1cc(-c2noc(-c3cc(C)nc(NC(C)C)c3)n2)cc(C)c1OC[C@@H](O)CNC(=O)CO [Example 203, N—((S)-3-{2-ethyl-4-[5-(2-isopropylamino-6-methyl-pyridin-4-yl)-[1,2,4]oxadiazol-3-yl]-6-methyl-phenoxy}-2-hydroxy-propyl)-2-hydroxy-acetamide]
[1]; [3]
  EC50: 0.5 nM

## CCc1cc(-c2nc(-c3cc(C)c(OC[C@@H](O)CNC(=O)CO)c(CC)c3)no2)cc(N(C)C)n1 [Example 192, N—((S)-3-{4-[5-(2-dimethylamino-6-ethyl-pyridin-4-yl)-[1,2,4]oxadiazol-3-yl]-2-ethyl-6-methyl-phenoxy}-2-hydroxy-propyl)-2-hydroxy-acetamide]
[1]; [3]
  EC50: 0.2 nM

## CCCc1cc(-c2noc(-c3cc(C)nc(N(C)C(C)C)c3)n2)cc(C)c1OC[C@@H](O)CNC(=O)CO [Example 139, 2-hydroxy-N—[(S)-2-hydroxy-3-(4-{5-[2-(isopropyl-methyl-amino)-6-methyl-pyridin-4-yl]-[1,2,4]oxadiazol-3-yl}-2-methyl-6-propyl-phenoxy)-propyl]-acetamide]
[1]; [3]
  EC50: 2 nM

## CCc1cc(-c2noc(-c3cc(C)nc(N(C)C(C)C)c3)n2)cc(C)c1OC[C@@H](O)CNC(=O)CO [Example 130, N—[(S)-3-(2-ethyl-4-{5-[2-(isopropyl-methyl-amino)-6-methyl-pyridin-4-yl]-[1,2,4]oxadiazol-3-yl}-6-methyl-phenoxy)-2-hydroxy-propyl]-2-hydroxy-acetamide]
[1]; [3]
  EC50: 0.1 nM

## CCc1cc(-c2noc(-c3cc(C)nc(N(CC)CC)c3)n2)cc(C)c1OCCN1CCC(C(=O)O)C1 (racemic) [Example 66, rac-1-(2-{4-[5-(2-Diethylamino-6-methyl-pyridin-4-yl)-[1,2,4]oxadiazol-3-yl]-2-ethyl-6-methyl-phenoxy}-ethyl)-pyrrolidine-3-carboxylic acid]
[1]; [3]
  EC50: 6.2 nM

## CCc1cc(-c2noc(-c3cc(C)nc(N4CCOCC4)c3)n2)cc(C)c1OC[C@H](O)CN [Example 208]
[1]; [2]
  EC50: > 10000 nM

## CCc1cc(-c2nc(-c3cc(C)nc(N(CC)CC)c3)no2)cc(C)c1OC[C@H](O)CNC(=O)CO [Example 79, N—((R)-3-{4-[3-(2-diethylamino-6-methyl-pyridin-4-yl)-[1,2,4]oxadiazol-5-yl]-2-ethyl-6-methyl-phenoxy}-2-hydroxy-propyl)-2-hydroxy-acetamide]
[1]; [3]
  EC50: 1.4 nM

## CCc1cc(-c2noc(-c3cc(C)nc(NC(C)C)c3)n2)cc(C)c1OC[C@H](O)CO [Example 198, (R)-3-{2-ethyl-4-[5-(2-isopropylamino-6-methyl-pyridin-4-yl)-[1,2,4]oxadiazol-3-yl]-6-methyl-phenoxy}-propane-1,2-diol]
[1]; [3]
  EC50: 2.4 nM

## CCc1cc(-c2noc(-c3cc(C)nc(N(CC)CC)c3)n2)cc(C)c1OCC(O)CO (racemic) [Example 15, rac-3-{4-[5-(2-Diethylamino-6-methyl-pyridin-4-yl)-[1,2,4]oxadiazol-3-yl]-2-ethyl-6-methyl-phenoxy}-propane-1,2-diol]
[1]; [3]
  EC50: 1.2 nM

## CCN(CC)c1cc(-c2nc(-c3cc(Cl)c(OC[C@H](O)CNC(=O)CO)c(OC)c3)no2)cc(C)n1 [Example 116, N—((R)-3-{2-chloro-4-[5-(2-diethylamino-6-methyl-pyridin-4-yl)-[1,2,4]oxadiazol-3-yl]-6-methoxy-phenoxy}-2-hydroxy-propyl)-2-hydroxy-acetamide]
[1]; [3]
  EC50: 2 nM

## CCc1cc(-c2nnc(-c3cc(C)nc(N(C)C(C)C)c3)s2)cc(C)c1OC[C@H](O)CN [Example 178]
[1]; [2]
  EC50: > 10000 nM

## CCc1cc(-c2nnc(-c3cc(C)nc(N(C)C(C)C)c3)s2)cc(C)c1OC[C@@H](O)CN [Example 179]
[1]; [2]
  EC50: > 10000 nM

## Cc1cc(-c2nc(-c3cc(C)c(OC[C@@H](O)CO)c(C)c3)no2)cc(N(C)C(C)C)n1 [Example 22, (S)-3-(4-{5-[2-(Isopropyl-methyl-amino)-6-methyl-pyridin-4-yl]-[1,2,4]oxadiazol-3-yl}-2,6-dimethyl-phenoxy)-propane-1,2-diol]
[1]; [3]
  EC50: 0.7 nM

## CCc1cc(-c2nnc(-c3cc(C)nc(N(CC)CC)c3)s2)cc(C)c1OC[C@@H](O)CO [Example 90]
[1]; [2]
  EC50: > 10000 nM

## CCc1cc(-c2noc(-c3cc(C)nc(N(C)CC(C)C)c3)n2)cc(C)c1OC[C@@H](O)CNC(=O)CO [Example 232, N—[(S)-3-(2-ethyl-4-{5-[2-(isobutyl-methyl-amino)-6-methyl-pyridin-4-yl]-[1,2,4]oxadiazol-3-yl}-6-methyl-phenoxy)-2-hydroxy-propyl]-2-hydroxy-acetamide]
[1]; [3]
  EC50: 4.1 nM

## Cc1cc(-c2nc(-c3cc(C)c(O)c(C)c3)no2)cc(N(C)C(C)C)n1 [Example 21, 4-{5-[2-(Isopropyl-methyl-amino)-6-methyl-pyridin-4-yl]-[1,2,4]oxadiazol-3-yl}-2,6-dimethyl-phenol]
[1]; [3]
  EC50: 3.6 nM

## CCN(CC)c1cc(-c2nc(-c3cc(C)c(OC[C@@H](O)CNC(=O)CO)c(Cl)c3)no2)cc(C)n1 [Example 109, N—((S)-3-{2-chloro-4-[5-(2-diethylamino-6-methyl-pyridin-4-yl)-[1,2,4]oxadiazol-3-yl]-6-methyl-phenoxy}-2-hydroxy-propyl)-2-hydroxy-acetamide]
[1]; [3]
  EC50: 0.5 nM

## CCc1cc(-c2noc(-c3cc(C)nc(N4CCOCC4)c3)n2)cc(C)c1OC[C@@H](O)CN [Example 209]
[1]; [2]
  EC50: > 10000 nM

## Cc1cc(-c2nc(-c3cc(C)c(OC[C@@H](O)CNC(=O)CO)c(Cl)c3)no2)cc(N(C)C(C)C)n1 [Example 146, N—[(S)-3-(2-chloro-4-{5-[2-(isopropyl-methyl-amino)-6-methyl-pyridin-4-yl]-[1,2,4]oxadiazol-3-yl}-6-methyl-phenoxy)-2-hydroxy-propyl]-2-hydroxy-acetamide]
[1]; [3]
  EC50: 0.8 nM

## CCc1cc(-c2nc(-c3cc(C)c(OCC(O)CNC(=O)CO)c(CC)c3)no2)cc(N(C)C)n1 (racemic) [Example 32, rac-N-(3-{4-[5-(2-Dimethylamino-6-ethyl-pyridin-4-yl)-[1,2,4]oxadiazol-3-yl]-2-ethyl-6-methyl-phenoxy}-2-hydroxy-propyl)-2-hydroxy-acetamide]
[1]; [3]
  EC50: 1.2 nM
